# d = 2'-deoxy (DNA); r = 2'-OH (RNA)
# Legend:
# [1] = tested on: HMGCR mRNA in primary hepatocytes; experiment: HMGCR mRNA in primary hepatocytes cultured with anti-HMGCR siRNA and/or atorvastatin (qPCR); type: cell-based, C57B6 mice; conditions: siRNA alone, 24 hours
# Method: qPCR assays. Quantitative, real-time PCR was performed using the Bio-Rad icycler system and iCycler reagents as recommended by the manufacturer. The primers used to amplify HMGCR sequences were SEQ ID 17 and SEQ ID 31.
# Total RNA from these cells was isolated and transcribed into cDNA using an oligo-dT primer and reverse transcriptase. Subsequently, HMGCR levels were assayed using quantitative, real-time PCR.
# [2] = tested on: mouse HMG CoA reductase mRNA; experiment: Serum triglyceride levels after tail vein injection of siRNA against HMG CoA reductase; type: in vivo, Apoetm1Unc mice; conditions: for Triglyceride levels: absorbance at 520 nm
# Method: Group A (series2) mice (5 mice) were each injected with 50 μg of an siRNA directed against mouse HMG CoA reductase mRNA. Group B (Series 1) mice (5 mice) were an uninjected control group. Group A and Group B animals were bled 7 days before, 2 days after, 4 days after, and 7 days after the injection. Serum samples were stored at −20° C. until all timepoints had been collected. Each group's serum samples from a given time-point were pooled prior to the triglyceride assays. Triglyceride assays were performed in quintuplicate.
# A total of 50 μg of siRNA-HMGCR was dissolved in 2.2 ml Ringer's solution (147 mM NaCl, 4 mM KCl, 1.13 mM CaCl2), and injected into the tail vein of ApoE (−/−) mice over 7-12 seconds. Control mice were not injected and are referred to here as naive. Each mouse was bled from the retro-orbital sinus at various times prior to and after injection. Cells and clotting factors were pelleted from the blood to obtain serum. The serum triglyceride levels were then assayed by a enzymatic, colorimetric assay using the Infinity Triglyceride Reagent (Sigma Co.).
# Triglyceride assays. Serum samples were diluted 1:100 in the Infinity Triglyceride Reagent (2 μl in 200 μl) in a clear, 96-well plate. Each assay plate was then incubated at 37° C. for five minutes, removed and allowed to cool to room temperature. Absorbance was measured at 520 nm using a SpectraMax Plus plate reader (Molecular Devices, Inc). Background absorbance (no serum added) was subtracted from each reading and the resulted data was plotted versus timepoint.
substance,measurement,setting,value
"siRNA-HMGCR: annealed oligomers SEQ ID 25 and SEQ ID 26, positions 2324-2344 of murine HMG CoA reductase reading frame (Examples 16, 18) (chain 1 ACAUUGUCACUGCUAUCUATT; chain 2 UAGAUAGCAGUGACAAUGUTT; sugars from the 5' end r19 d2, backbone not given here; listed as Mus musculus)","HMGCR mRNA, % of that seen in control cells",[1],approximately 20%
same,triglyceride levels (in words),"[2]; 50 μg siRNA tail vein, after 7 days",returned to normal levels
same,triglyceride levels reduced,"[2]; 50 μg siRNA tail vein, after two days",62%
same,triglyceride levels reduced,"[2]; 50 μg siRNA tail vein, second value, printed again as after two days",56%
same,Triglyceride levels,"[2]; day +2, pooled serum",0.082 ± 0.006
same,Triglyceride levels,"[2]; day +4, pooled serum",0.095 ± 0.005
same,Triglyceride levels,"[2]; day +7, pooled serum",0.189 ± 0.012
same,Triglyceride levels,"[2]; day −7 (before injection), pooled serum",0.218 ± 0.008

# From patent US20050037989A1, “Inhibition of gene function by delivery of polynucleotide-based gene expression inhibitors to mammalian cells in vivo” (priority 2001, published 2005)
